Tests used:
[1] = molecular target: T1, Bcl-xL/Bim heterodimer in Bcl-xL expressing ATH66 cells (Homo sapiens, UniProt Q07817); experiment: Flow cytometry HSBXB/Bcl-xL signal after BH3 mimetic treatment; format: cell-based
T1 construct: endogenous in cells; host or cells: ATH66 cells
Text: FIG. 8 consists of two graphs that show how the Bcl-xL selective BH3 mimetic (A1155463) shifts the HSBXB heterodimer signal detected in cancer cells. For each series, the left bar is HSBXB signal and the right bar is total Bcl-xL. […] The term “I/C” on the x-axis of the graph refers to “isotype control.” and the term “CC” on the x-axis of the graph refers to the non-stained or “clean control.” The signal was detected using Flow Cytometry.
In these experiments, Bcl-xL expressing ATH66 cells were treated with the compound for 16 hours, then fixed with paraformaldehyde, permeabilized with non-ionic detergent and stained with HSBXB-FITC and with anti-Bcl-xL-Rhodamine. The signals were resolved using flow cytometry. The ratio of the signals provided the Bcl-xL priming index.

[2] = test system: SEV-Bcl-xL-Bim cells; experiment: Flow cytometry HSBXB/Bcl-xL signal ratio in SEV-Bcl-xL-Bim cells; format: cell-based, human; conditions: 2 hours semi-permeabilized or 16 hours intact cells, flow cytometry (FIG. 14)
Procedure: In FIG. 14A, human seminal endothelial vesicle cells overexpressing ectopic Bcl-xL and Bim (SEV-Bcl-xL-Bim[ref]) were treated with A-1155463 at the indicated concentrations for 2 hours in semi-permeabilized cells, fixed, and then […] HSBXB or Bcl-xL antibody corrected to IgG-2A isotype. The ratio of the signals (y-axis) were collected flow cytometry. In FIG. 14B, intact SEV-Bcl-xL/Bim cells were treated with A-1155463 for 16 hours, fixed and stained as in FIG. 14A. The ratio of HSBXB and Bcl-xL signal was calculated as a percentage as shown below: […]

[3] = test system: HCC1937; experiment: Drug response (cell viability) in breast cancer cells; format: cell-based; conditions: HCC1937 human breast cancer cells
Text: (§1) FIG. 16A, and FIG. 16B are graphs showing drug response to A1331852 in breast cancer (BC) cells.
(§2) Drug response to the Bcl-xL inhibitor, A-1331852, or the MEK inhibitor, Selumetinib, was compared in two types of human breast cancer cells, HCC1937 and BT-474, as shown in FIG. 16A and FIG. 16B. […] Immunofluorescence (IF) stainings of the HSBXB antibody and the Bcl-XL inhibitor, A-1331852, are shown in FIG. 17 in untreated human breast cancer cells, HCC1937 and BT-474. IF stainings and relative signal intensity were obtained from human breast cancer cells, HCC1937, treated with or without the A-1331852 inhibitor, or treated with or without the HSBXB antibody, as shown in FIG. 18.

[4] = test system: BT-474; experiment: as above; format: cell-based; conditions: BT-474 human breast cancer cells
Text: as §1, §2

[5] = test system: HCC1937 cells; experiment: Immunofluorescence localization of Bcl-xL and HSBXB; format: cell-based, human; conditions: IF (FIG. 19)
Procedure: A quantitative analysis was performed using the software Zen 2011 (Blue edition, Carl Zeiss). For each panel, the bar at the far left is Mito-BCL-XL, the next bar is Mito-HSBXB, the next bar is Bcl-XL-HSBXB, the next bar is Bcl-XL-DAPI, and the bar on the far right is HSBXB-DAPI. […] Immunofluorescence (IF) stainings of the HSBXB antibody and the Bcl-XL inhibitor, A-1331852, are shown in FIG. 17 in untreated human breast cancer cells, HCC1937 and BT-474. IF stainings and relative signal intensity were obtained from human breast cancer cells, HCC1937, treated with or without the A-1331852 inhibitor, or treated with or without the HSBXB antibody, as shown in FIG. 18.

[6] = molecular target: T2, Bcl-xL-GST/Full length BIM protein (Homo sapiens, UniProt Q07817); experiment: ELISA, inhibition of HSBXB signal on Bcl-xL-GST/full length BIM heterodimer; format: binding; conditions: heterodimers formed with full length Bim protein
T2 construct: cloned and mutated to delete their transmembrane domains; made in house; host or cells: E. coli BL21
Procedure: The compound was added to the ELISA plates after addition of peptides and before adding the monoclonal antibody.
(§3) To further characterize HSBXB, the antibody was assessed under conditions where Bcl-xL/Bim binding, mediated by the BH3 domain of Bim, was inhibited. […] In the experiment shown in FIG. 13A, Bcl-xL-GST was bound to glutathione-coated ELISA plates. Bim-BH3 peptide was then added, or not added as a control, and HSBXB antibody was used to detect complex formation. […] Non-covalent Bcl-xL-GST/Bim BH3 heterodimer was bound to glutathione-coated ELISA plates and treated with ABT-263. ABT-263 was then added to the ELISA plates after addition of peptides and before adding the monoclonal antibody.

[7] = molecular target: T3, Bcl-xL-GST/Bim BH3 heterodimer (Homo sapiens, UniProt Q07817); experiment: ELISA, inhibition of HSBXB signal on non-covalent Bcl-xL-GST/Bim BH3 heterodimer; format: binding; conditions: heterodimers formed with peptide comprising the BH3 domain of Bim; compound added after peptides, before antibody
T3 construct: cloned and mutated to delete their transmembrane domains; made in house; host or cells: E. coli BL21
T3 sequence (Q07817 1-209 limits assumed, one chain of several): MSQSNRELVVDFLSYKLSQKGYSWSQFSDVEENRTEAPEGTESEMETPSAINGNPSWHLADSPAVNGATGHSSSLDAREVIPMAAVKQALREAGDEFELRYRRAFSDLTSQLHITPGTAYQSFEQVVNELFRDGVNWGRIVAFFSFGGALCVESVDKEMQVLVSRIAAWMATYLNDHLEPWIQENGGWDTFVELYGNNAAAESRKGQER
Procedure: as §3

T1 sequence (Q07817 whole entry, species assumed, one chain of several): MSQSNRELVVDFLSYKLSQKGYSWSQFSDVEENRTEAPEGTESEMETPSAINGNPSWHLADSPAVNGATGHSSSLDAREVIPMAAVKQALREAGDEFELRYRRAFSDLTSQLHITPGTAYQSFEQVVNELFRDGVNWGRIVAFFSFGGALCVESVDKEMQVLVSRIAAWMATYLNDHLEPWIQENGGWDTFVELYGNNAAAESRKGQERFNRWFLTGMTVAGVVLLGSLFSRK
T2 sequence (Q07817 1-209 limits assumed): as the sequence (Q07817 1-209 limits assumed, one chain of several) above

## CN(C)CC#Cc1ccc(OCCCc2sc(N3CCc4cccc(C(=O)Nc5nc6ccccc6s5)c4C3)nc2C(=O)O)c(F)c1 [A-1155463]
[1]; ATH66 cells treated for 16 hours, flow cytometry
  Bcl-xL priming index (ratio of HSBXB-FITC and anti-Bcl-xL-Rhodamine signals): diminish over a time course that coincided with the occurrence of apoptosis
[1]; sub-lethal dose, 16 hours, flow cytometry (FIG. 8)
  HSBXB heterodimer signal: lose signal after 16 hours
[2]
  HSBXB signal (ratio of HSBXB and Bcl-xL signal): HSBXB signal shifts

## Cc1c(-c2ccc(N3CCc4cccc(C(=O)Nc5nc6ccccc6s5)c4C3)nc2C(=O)O)cnn1CC12CC3CC(CC(C3)C1)C2 [A-1331852]
[3]
  cell viability: decrease in cell viability
[4]
  cell viability: decrease in cell viability
[5]
  localization of Bcl-xL and HSBXB: Changes in the localization of Bcl-xL and HSBXB

## CC1(C)CCC(c2ccc(Cl)cc2)=C(CN2CCN(c3ccc(C(=O)NS(=O)(=O)c4ccc(N[C@H](CCN5CCOCC5)CSc5ccccc5)c(S(=O)(=O)C(F)(F)F)c4)cc3)CC2)C1 [ABT-263]
[6]
  inhibition of heterodimer antibody (HSBXB) signal: dose-dependent inhibition of heterodimer antibody signal
[7]
  inhibition of heterodimer antibody (HSBXB) signal: dose-dependent inhibition of heterodimer antibody signal

Source: patent US20200348280A1, “METHODS FOR PREDICTING CANCER DRUG RESPONSIVENESS” (Eutropics Pharmaceuticals, Inc., priority 2018, published 2020)
